Data on 4 molecules can be found in ChEMBL document CHEMBL1150659, “Pachyclavulariaenones D-G, new diterpenoids from the soft coral Pachyclavularia violacea” (2002).

Molecules are shown by their SMILES. In brackets after ≈: the same amount, converted by molar mass.

For one assay, the system named is A549. The assay can be described thus: Cytotoxicity against human A549 cells. The format is functional.
For the next assay, the system named is HT-29. Briefly: Cytotoxicity against human HT-29 cells. The format is functional.
The subject of a further assay is P388. Briefly: Cytotoxicity against mouse P388 cells. The format is functional, cell-based.
Another assay concerns P-388 (Mus musculus). Briefly: Cytotoxicity against mouse P-388 cells. Particulars: read-out: ED50 (the source's name).

As to `CC(=O)O[C@@H]1C[C@@H](OC(C)=O)[C@](C)(O)C[C@@H]2O[C@H]3[C@@H]4[C@H]2C(C)=CC(=O)[C@@H]4[C@@H](C)CO[C@@]13C`, the Activity entry in the assay on A549 and in the assay with HT-29 was “Not toxic” each time.
With `CC1=CC(=O)[C@H]2[C@H]3[C@@H]1[C@@H]1C/C(C)=C\C[C@@H](O)[C@](C)(OC[C@@H]2C)[C@H]3O1`, the Activity result in the assay on A549, with HT-29 and in the assay on P388 was “Not toxic” each time.
As for `CC(=O)O[C@@H]1C[C@@H](O)[C@]2(C)OC[C@H](C)[C@H]3C(=O)C=C(C)[C@@H]4[C@H]3[C@@H]2O[C@H]4C[C@@]1(C)O`, the Activity result in the assay on A549 and in the assay with HT-29 was “Not toxic” throughout.
For `CC1=CC(=O)[C@H]2[C@H]3[C@@H]1[C@@H]1C[C@@](C)(O)[C@H](O)C[C@@H](O)[C@](C)(OC[C@@H]2C)[C@H]3O1` [PACHYCLAVULARIAENONE G], the EC50 with HT-29 (read-out: ED50 (the source's name)) is 3.2 µg/mL (≈ 8.73 µM); with P-388 (Mus musculus), 0.2 µg/mL (≈ 0.546 µM).
